Laboratory results published in patent US6846840B2, “Cytotoxic N-unsubstituted indoles and cyclopent(B)indoles and method of making and using same” (Arizona Board of Regents acting for and on behalf of …, priority 1999, dated 2005).
Where two headings read alike, the source gives them in different places.

How the values were obtained:
[1] = system: LEUKEMIA cancer cell lines; conditions: log of concentration causing 50% lethality; arithmetic average of six to eight leukemia cell lines
[2] = system: NSC LUNG cancer cell lines; conditions: log of concentration causing 50% lethality; arithmetic average of six to eight NSC lung cell lines
[3] = system: COLON cancer cell lines; conditions: log of concentration causing 50% lethality; arithmetic average of six to eight colon cell lines
[4] = system: CNS cancer cell lines; conditions: log of concentration causing 50% lethality; arithmetic average of six to eight CNS cell lines
[5] = system: MELANOMA cancer cell lines; conditions: log of concentration causing 50% lethality; arithmetic average of six to eight melanoma cell lines
[6] = system: OVARIAN cancer cell lines; conditions: log of concentration causing 50% lethality; arithmetic average of six to eight ovarian cell lines
Method: (§1) For each histologic cancer type, the average −log LC50 value was determined from an NCI panel consisting of six to eight human cancer cell lines. {Paull, D. K.; Shoemaker, R. H.; Hodes, L.; Monks, A.; Scudiero, D. A.; Rubinstein, L.; Plowman, J.; Boyd, M. R. Display and Analysis of Differential Activity of Drugs Against Human Tumor Cell Lines: Development of Mean Graph and COMPARE Algorithm.

[7] = system: RENAL cancer cell lines; conditions: log of concentration causing 50% lethality; arithmetic average of six to eight renal cell lines
Method: as §1

[8] = system: PROSTATE cancer cell lines; conditions: log of concentration causing 50% lethality; arithmetic average of six to eight prostate cell lines
Method: as §1

[9] = system: BREAST cancer cell lines; conditions: log of concentration causing 50% lethality; arithmetic average of six to eight breast cell lines
Method: as §1

[10] = system: B-16 melanoma; conditions: for in vivo activity (effect on tumor mass), in words: B16 syngraft, dosing on days 1, 5, and 9 after implantation of 10^5 cells; for area under the tumor-growth curve (AUC): control 11.39
Method: This compound was studied at three dose levels: 2, 3 and 5 mg/Kg IP on days 1, 5, and 9 after tumor implantation into the front flank muscle. Shown in the plot are the AUC values as a function of time for each dosage. The control was obtained with drug-free animals.

[11] = system: 600 bp calf thymus DNA; assay: Alkylation of DNA by reduced indoloquinones; conditions: FIG. 2
[12] = target: T1, rat liver DT-diaphorase (Rattus norvegicus, UniProt P05982); conditions: FIG. 2
T1 sequence (P05982 2-274 limits assumed): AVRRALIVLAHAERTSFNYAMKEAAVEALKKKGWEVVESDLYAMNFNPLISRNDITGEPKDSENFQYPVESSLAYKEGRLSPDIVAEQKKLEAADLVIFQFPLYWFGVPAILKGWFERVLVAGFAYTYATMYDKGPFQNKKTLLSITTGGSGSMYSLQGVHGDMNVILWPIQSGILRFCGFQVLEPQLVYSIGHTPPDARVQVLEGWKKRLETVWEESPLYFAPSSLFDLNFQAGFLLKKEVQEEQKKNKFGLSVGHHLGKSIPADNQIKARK

[13] = 1 mg/Kg IP on days 1, 5, and 9 after tumor implantation
[14] = 3 mg/Kg IP on days 1, 5, and 9 after tumor implantation

Compound	Log LC50 [1] [moles/liter]	Log LC50 [2] [moles/liter]	Log LC50 [3] [moles/liter]	Log LC50 [4] [moles/liter]	Log LC50 [5] [moles/liter]	Log LC50 [6] [moles/liter]	Log LC50 [7] [moles/liter]	Log LC50 [8] [moles/liter]	Log LC50 [9] [moles/liter]	in vivo activity (effect on tumor mass), in words [10]	area under the tumor-growth curve (AUC) [10, 13]	area under the tumor-growth curve (AUC) [10, 14]	% reductive alkylation of DNA, in words [11]	DT-diaphorase substrate activity, in words [12]
CC1=C(N2CC2)C(=O)c2[nH]c3c(c2C1=O)CCC3=O [Cyclopent[b]indole 3e, 6-Aziridinyl-1,4-dihydro-7-methyl-(2H) cyclopent [b]indole-3,5,8-trione]	>−4	−5.37	−5.44	−5.13	−5.99	−4.86	−5.34	−4.8	−4.9	completely inactive				
CC1=C(N2CC2)C(=O)c2[nH]c3c(c2C1=O)CCC3O (centres unmarked) [Cyclopent[b]indole 3b, 6-Aziridinyl-1,4-Dihydro-3-hydroxy-7-methyl-(2H) cyclopent[b]indole-5,8-dione]	−4.06	−4.22	−4.45	−4.54	−4.85	−4.05	−4.73	−4.5	−4.47					
CC(=O)OC1CCc2c1[nH]c1c2C(=O)C(C)=C(N2CC2)C1=O (centres unmarked) [Cyclopent[b]indole 3c, 3-Acetoxy-6-aziridinyl-1,4-dihydro-7-methyl-(2H) cyclopent [b]indole-5,8-dione]	−4.3	−4.65	−4.85	−4.7	−4.99	−4.366	−4.72	−4.63	−4.53	reduce the tumor mass substantially	6.67	6.92	highest % alkylation of DNA	
CC1=C(N2CC2)C(=O)c2c([nH]c(CO)c2C)C1=O [Indole 1b, 5-Aziridinyl-2-(hydroxymethyl)-3,6-dimethylindole-4,7-dione]	>−4	−4.37	−4.32	>−4	−5.39	>−4	−4.53	−4.78	−4.56					
CC(=O)OCc1[nH]c2c(c1C)C(=O)C(N1CC1)=C(C)C2=O [Indole 1c, 2-(Acetoxymethyl)-5-aziridinyl-3,6-dimethylindole-4,7-dione]	>−4	−4.48	−5.08	−4.83	−5.64	−4.46	−4.54	−5.01	−4.57	decreased tumor mass only at the 3 mg/kg dose	10.94	15.82		
CC1=C(N2CC2)C(=O)c2c([nH]c(C)c2C)C1=O [Indole 1a, 5-Aziridinyl-2,3,6-trimethylindole-4,7-dione]	>−4	−4.29	>−4	>−4	−4.42	>−4	>−4	>−4	>−4					
CC1=C(N2CC2)C(=O)c2[nH]c(CO)c(C)c2C1=O [Indole 2b, 6-Aziridinyl-2-(hydroxymethyl)-3,5-dimethylindole-4,7-dione]	>−4	−4.1	−4.2	−4.05	−4.4	>−4	−4.23	−4.2	−4.05					
CC(=O)OC1CCc2c3c(n(C(C)=O)c21)C(=O)C(N1CC1)=C(C)C3=O (centres unmarked) [Cyclopent[b]indole 14, 3-Acetoxy-4-acetyl-6-aziridinyl-1,4-Dihydro-7-methyl-(2H) cyclopent[b]indole-5,8-dione]	>−4	−4.42	−4.77	−4.75	−5.06	−4.18	−4.78	−4.71	−4.5	enhances antitumor activity greatly			readily alkylates DNA	excellent substrate for DT-diaphorase
CC(=O)OCc1[nH]c2c(c1C)C(=O)C(C)=C(N1CC1)C2=O [Indole 2c, 2-(Acetoxymethyl)-6-aziridinyl-3,5-dimethylindole-4,7-dione]	>−4	−4.1	>−4	>−4	−4.15	>−4	−4.14	>−4	>−4	inactive at both concentrations	13.83	8.59		
COC1CCc2c1[nH]c1c2C(=O)C(C)=C(N2CC2)C1=O (centres unmarked) [Cyclopent[b]indole 3d, 6-Aziridinyl-1,4-dihydro-3-methoxy-7-methyl-(2H) cyclopent[b]indole-5,8-dione]	−4.06	−4.2	−4.318	−4.17	−4.92	>−4	−4.58	−4.46	−4.33					
